Consider 17 compounds from patent US8969345B2, “Dibenzooxepin derivative” (Kyowa Hakko Kirin Co., Ltd., priority 2011, dated 2015).

Data set [1] addresses T1, GAL4-PPAR γ chimeric nuclear receptor (human PPAR γ ligand binding domain) (Homo sapiens, UniProt P37231).
T1 construct: expressed in transfected cells; host or cells: HEK293EBNA cells, transient transfection with SuperFect
T1 sequence (P37231 174-475 isoform P37231-2): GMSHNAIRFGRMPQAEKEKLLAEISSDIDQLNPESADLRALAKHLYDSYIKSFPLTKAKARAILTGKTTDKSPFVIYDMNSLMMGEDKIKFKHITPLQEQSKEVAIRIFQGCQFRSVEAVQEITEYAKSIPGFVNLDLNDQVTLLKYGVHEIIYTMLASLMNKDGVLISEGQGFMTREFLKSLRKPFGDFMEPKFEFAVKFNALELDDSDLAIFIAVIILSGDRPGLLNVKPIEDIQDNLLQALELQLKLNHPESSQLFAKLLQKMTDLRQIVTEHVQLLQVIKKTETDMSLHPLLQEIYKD
The data set can be described thus: PPAR γ transactivation assay by transient gene transfer (GAL4-PPAR γ chimeric receptor, luciferase reporter, HEK293EBNA cells). The following applies: concentration showing 50% of efficacy (maximum activity rate relative to pioglitazone = 100%), 24 hr. It counts as cell-based. As for the experimental part: The agonist activity of the test compound to PPAR γ was determined by a transactivation assay method using a chimeric nuclear receptor of a DNA binding region of a yeast transcription factor GAL4 and a PPAR γ ligand binding region. Specifically, the PPAR γ agonist activity of the test compound was evaluated by the following method based on the method of Lehmann et al. (J Biol. Chem., 1995, vol. 270, page 12953).
HEK293EBNA cells cultured in Dulbecco's Modified Eagle medium (Invitrogen) containing 10 v/v % fetal bovine serum (Invitrogen) were used. 30 mL of the above-mentioned cells (density: 1×10^5 cells/mL) were inoculated in a […] (Iwaki Glass), and cultured overnight. Using SuperFect Transfection Reagent (QIAGEN), a plasmid expressing a GAL4-PPAR γ chimeric nuclear receptor fusing 174-475 amino acids, which are human PPAR γ ligand binding domain, and 1-147 amino acids, which are GAL4 DNA binding domain, and a reporter plasmid expressing a GAL4 responsive luciferase were transiently introduced into the cells at a proportion of 4:1. After 5 hr from transfection, the cells were detached from the culture dish, and the detached cells (density: 2×10^4 cells/mL) were inoculated by 100 μL in each well of a 96 well white plate (SUMITOMO BAKELITE), and cultured overnight. The medium was removed, the test compound diluted in various concentrations with serum-free Dulbecco's Modified Eagle medium was added by 100 μL, and the mixture was reacted under a 5% carbon dioxide gas stream (5% CO2) at 37° C. for 24 hr. On the other hand, as a positive control, 10 μmol/L of pioglitazone (100 μL) was added, and the mixture was reacted under a 5% carbon dioxide gas stream (5% CO2) at 37° C. for 24 hr. As a substrate of luciferase, 100 μL of Steady-Glo (Promega) was added to each well and the mixture was thoroughly stirred. Immediately thereafter, the chemical luminescence due to luciferase was measured using TopCount NTX (Packard).
The agonist activity (activity rate (%)) of the test compound to PPAR γ was calculated according to the following formula, as a relative activity when the agonist activity on addition of pioglitazone ([…]) was 100%.

Data set [2] can be described thus: Metabolic stability evaluation in human liver microsome. It counts as in vitro ADME. Conditions: liver microsomes, pH 7.4; human liver microsome 0.2 mg/mL protein, test compound 1 μmol/L, β-NADPH, 37° C., 30 min; average of two samples; read-out: hCLint (converted). As for the experimental part:
Human liver microsome (pool of 50 donors) was purchased from XenoTech. A reaction mixture containing phosphate buffer (100 mmol/L, pH 7.4), ethylenediamine tetraacetic acid (0.1 mmol/L), magnesium chloride (6 mmol/L), human liver microsome (0.2 mg/mL protein) and test compound (1 μmol/L) was prepared. The reaction mixture was preincubated at 37° C. for 5 min, β-NADPH (1 mmol/L) was added and the mixture was incubated at 37° C. for 30 min. The protein was removed with acetonitrile from the sample after the reaction and the sample was measured by LC-MS/MS. The ratio of the organic solvent in the reaction mixture was set to about 0.5%, and the reaction was performed in 2 samples.
The elimination rate constant (ke) was calculated from the linear regression of the logarithm plot of the residual ratio of the test compound and at 30 min after the reaction, and the liver inherent clearance (Cint) was calculated by the following formula.
[formula] ke: elimination rate constant (1/h) a: concentration (mg/mL) of liver microsome in the reaction mixture b: liver microsome amount per liver unit weight (32.3 mg/g liver) c: liver weight per unit body weight (25.7 g liver/kg body weight) Each test compound was tested in two samples, and the average thereof was calculated.

The structures appear in SMILES notation.

As for `CCCc1nc2ccccc2n1Cc1ccc2c(c1)COc1cc(F)ccc1/C2=C(\C)c1noc(=O)[nH]1` [Compound 1a, (E)-3-(1-{3-fluoro-8-[(2-propyl-1H-benzo[d]imidazol-1-yl)methyl]dibenzo[b,e]oxepin-11(6H)-ylidene}ethyl)-1,2,4-oxadiazol-5(4H)-one], the EC50 in data set [1] came out at 7.4 nM. Moreover, the CLint scaled at 1 μmol/L in data set [2] is 53.3 mL/min/kg.
For the compound `COCc1nc2ccccc2n1Cc1ccc2c(c1)COc1cc(F)ccc1/C2=C(\C)c1noc(=O)[nH]1` [Compound 1b, (E)-3-[1-(3-fluoro-8-{[2-(methoxymethyl)-1H-benzo[d]imidazol-1-yl]methyl}dibenzo[b,e]oxepin-11(6H)-ylidene)ethyl]-1,2,4-oxadiazol-5(4H)-one], in data set [1], it took 11.7 nM to reach a half-maximal effect (EC50). Moreover, in data set [2], the CLint scaled at 1 μmol/L was 31.7 mL/min/kg.
For `C/C(=C1/c2ccc(Cn3c(C4CC4)nc4ccccc43)cc2COc2cc(F)ccc21)c1noc(=O)[nH]1` [Compound 1d, (E)-3-(1-{8-[(2-cyclopropyl-1H-benzo[d]imidazol-1-yl)methyl]-3-fluorodibenzo[b,e]oxepin-11(6H)-ylidene}ethyl)-1,2,4-oxadiazol-5(4H)-one], a half-maximal response in data set [1] (EC50) required 9 nM. The CLint scaled at 1 μmol/L in data set [2] was 23.3 mL/min/kg.
In the same order, the values of `C/C(=C1/c2ccc(Cn3c(C4CC(F)(F)C4)nc4ccccc43)cc2COc2cc(F)ccc21)c1noc(=O)[nH]1` [Compound 1j, (E)-3-[1-(8-{[2-(3,3-difluorocyclobutyl)-1H-benzo[d]imidazol-1-yl]methyl}-3-fluorodibenzo[b,e]oxepin-11(6H)-ylidene)ethyl]-1,2,4-oxadiazol-5(4H)-one] are 7.2 nM and 28.3 mL/min/kg.
The like results for `[2H]C([2H])([2H])Oc1cccc2c1nc(COC)n2Cc1ccc2c(c1)COc1cc(F)ccc1/C2=C(\C)c1noc(=O)[nH]1` [Compound 2a, (E)-3-[1-(3-fluoro-8-{[4-(methoxy-d3)-2-(methoxymethyl)-1H-benzo[d]imidazol-1-yl]methyl}dibenzo[b,e]oxepin-11(6H)-ylidene)ethyl]-1,2,4-oxadiazol-5(4H)-one] were, in that order, 45.6 nM and 7.33 mL/min/kg.
In data set [1], `CCCc1nc2c(C(N)=O)cccc2n1Cc1ccc2c(c1)COc1cc(F)ccc1/C2=C(\C)c1noc(=O)[nH]1` [Compound 2b, (E)-1-({3-fluoro-11-[1-(5-oxo-4,5-dihydro-1,2,4-oxadiazol-3-yl)ethylidene]-6,11-dihydrodibenzo[b,e]oxepin-8-yl}methyl)-2-propyl-1H-benzo[d]imidazole-4-carboxamide] came in with a concentration for a half-maximal effect (EC50) of 59.5 nM. For the same compound, the CLint scaled at 1 μmol/L in data set [2] is 26.7 mL/min/kg.
In the same order, the values of `C/C(=C1/c2ccc(Cn3c(C4CCC4)nc4c(Cl)nccc43)cc2COc2cc(F)ccc21)c1noc(=O)[nH]1` [Compound 3b, (E)-3-(1-{8-[(4-chloro-2-cyclobutyl-1H-imidazo[4,5-c]pyridin-1-yl)methyl]-3-fluorodibenzo[b,e]oxepin-11(6H)-ylidene}ethyl)-1,2,4-oxadiazol-5(4H)-one] are 22.8 nM and 9.5 mL/min/kg.
In the same order, the values of `C/C(=C1/c2ccc(Cn3c(C4CCC4)nc4nc(F)ccc43)cc2COc2cc(F)ccc21)c1noc(=O)[nH]1` [Compound 3i, (E)-3-(1-{8-[(2-cyclobutyl-5-fluoro-1H-imidazo[4,5-b]pyridin-1-yl)methyl]-3-fluorodibenzo[b,e]oxepin-11(6H)-ylidene}ethyl)-1,2,4-oxadiazol-5(4H)-one] are 8.5 nM and 21.7 mL/min/kg.
In data set [1], `C/C(=C1/c2ccc(Cn3c(CN(C)C)nc4ccccc43)cc2COc2cc(F)ccc21)c1noc(=O)[nH]1` [Compound 4a, (E)-3-{1-[8-({2-[(dimethylamino)methyl]-1H-benzo[d]imidazol-1-yl}methyl)-3-fluorodibenzo[b,e]oxepin-11(6H)-ylidene]ethyl}-1,2,4-oxadiazol-5(4H)-one] returned an EC50 of 33.5 nM. Moreover, in data set [2], the CLint scaled at 1 μmol/L is 31.7 mL/min/kg.
The like results for `CCCc1nc2ccccc2n1Cc1ccc2c(c1)COc1cc(F)ccc1/C2=C(/c1noc(=O)[nH]1)C1CC1` [Compound 4g, (E)-3-(cyclopropyl{3-fluoro-8-[(2-propyl-1H-benzo[d]imidazol-1-yl)methyl]dibenzo[b,e]oxepin-11(6H)-ylidene}methyl)-1,2,4-oxadiazol-5(4H)-one] were, in that order, 54.9 nM and 78.3 mL/min/kg.
In the same order, the values of `CC/C(=C1/c2ccc(Cn3c(COC)nc4ccccc43)cc2COc2cc(F)ccc21)c1noc(=O)[nH]1` [Compound 4l, (E)-3-[1-(3-fluoro-8-{[2-(methoxymethyl)-1H-benzo[d]imidazol-1-yl]methyl}dibenzo[b,e]oxepin-11(6H)-ylidene)propyl]-1,2,4-oxadiazol-5(4H)-one] are 38 nM and 36.7 mL/min/kg.
In the same order, the values of `CCCc1nc2ccccc2n1Cc1ccc2c(c1)COc1cc(F)c(F)cc1/C2=C(\C)c1noc(=O)[nH]1` [Compound 6a, (E)-3-(1-{2,3-difluoro-8-[(2-propyl-1H-benzo[d]imidazol-1-yl)methyl]dibenzo[b,e]oxepin-11(6H)-ylidene}ethyl)-1,2,4-oxadiazol-5(4H)-one] are 11.5 nM and 33.3 mL/min/kg.
In the case of `CCCc1nc2ccccc2n1Cc1ccc2c(c1)COc1c(ccc(F)c1F)/C2=C(\C)c1noc(=O)[nH]1` [Compound 7a, (E)-3-(1-{3,4-difluoro-8-[(2-propyl-1H-benzo[d]imidazol-1-yl)methyl]dibenzo[b,e]oxepin-11(6H)-ylidene}ethyl)-1,2,4-oxadiazol-5(4H)-one], the EC50 in data set [1] was found to be 27.7 nM. Also, the CLint scaled at 1 μmol/L in data set [2] is 48.3 mL/min/kg.
In data set [1], `C/C(=C1/c2ccc(Cc3c(C4CC4)nc4c(Cl)cccn34)cc2COc2cc(F)ccc21)c1noc(=O)[nH]1` [Compound 8a, (E)-3-(1-{8-[(8-chloro-2-cyclopropylimidazo[1,2-a]pyridin-3-yl)methyl]-3-fluorodibenzo[b,e]oxepin-11(6H)-ylidene}ethyl)-1,2,4-oxadiazol-5(4H)-one] returned an EC50 of 4.2 nM. Also, the CLint scaled at 1 μmol/L in data set [2] is 36.7 mL/min/kg.
The like results for `C/C(=C1/c2ccc(Cc3c(C4CC4)nc4ccccn34)cc2COc2cc(F)ccc21)c1noc(=O)[nH]1` [Compound 8b, (E)-3-(1-{8-[(2-cyclopropylimidazo[1,2-a]pyridin-3-yl)methyl]-3-fluorodibenzo[b,e]oxepin-11(6H)-ylidene}ethyl)-1,2,4-oxadiazol-5(4H)-one] were, in that order, 27.7 nM and 40 mL/min/kg.
With `C/C(=C1/c2ccc(Cc3c(C(C)C)nc4ccccn34)cc2COc2cc(F)ccc21)c1noc(=O)[nH]1` [Compound 8c, (E)-3-(1-{3-fluoro-8-[(2-isopropylimidazo[1,2-a]pyridin-3-yl)methyl]dibenzo[b,e]oxepin-11(6H)-ylidene}ethyl)-1,2,4-oxadiazol-5(4H)-one], in data set [1], a half-maximal effect (EC50) was put at 33.3 nM. Moreover, in data set [2], the CLint scaled at 1 μmol/L is 50 mL/min/kg.
Compound `COCc1nc2ccccn2c1Cc1ccc2c(c1)COc1cc(F)ccc1/C2=C(\C)c1noc(=O)[nH]1` [Compound 8f, (E)-3-[1-(3-fluoro8-{[2-(methoxymethyl)imidazo[1,2-a]pyridin-3-yl]methyl}dibenzo[b,e]oxepin-11(6H)-ylidene)ethyl]-1,2,4-oxadiazol-5(4H)-one] had an EC50 in data set [1] of 31.7 nM. The CLint scaled at 1 μmol/L in data set [2] was 16.7 mL/min/kg.
